Literature values in article PMC7394005, “Assessing the Selectivity of FXR, LXRs, CAR, and RORγ Pharmaceutical Ligands With Reporter Cell Lines” (Frontiers in Pharmacology, 2020).

What was measured:
hPXR = tested on: hPXR; set-up: method as in Lin et al., 2017; details: ref Lin et al., 2017; read-out: IC50 in the cell-based hPXR antagonistic assay; cited from earlier work
FXR = tested on: FXR; set-up: method as in Yu et al., 2014; details: ref Yu et al., 2014; read-out: IC50 in FXR cell-based antagonistic assays; cited from earlier work
LXRβ = details: luciferase reporter gene with LXR response elements in HEK293 cells; ref Peng et al., 2011; cited from earlier work
[1] = tested on: type 1 diabetes model mice; set-up: method as in Solt et al., 2015; details: ref Solt et al., 2015; cited from earlier work
RORγt = tested on: RORγt; set-up: method as in Rene et al., 2014; Chang et al., 2016; details: full-length RORγt transfected cells; ref Rene et al., 2014; Chang et al., 2016; read-out: EC50, induction of reporter gene expression; cited from earlier work
hPXR LBD = tested on: hPXR LBD; set-up: method as in Shukla et al., 2011; details: ref Shukla et al., 2011; cited from earlier work
CAR/SRC-1 = tested on: CAR/SRC-1; set-up: method as in Maglich et al., 2003; details: ref Maglich et al., 2003; read-out: EC50 in the CAR/SRC-1 FRET assay; cited from earlier work

SPA70
IC50 (hPXR): 510 nM

COc1cccc(Cn2cc(C(=O)Nc3ccc(C)c(S(=O)(=O)N4CCOCC4)c3)c(-c3ccc(C)cc3)n2)c1 [DY268]
IC50 (FXR): 468 nM

O=C(O)Cc1cccc(OCCCN(Cc2cccc(C(F)(F)F)c2Cl)CC(c2ccccc2)c2ccccc2)c1 [GW3965]
LXRβ agonistic potency (LXRβ): nanomolar

CC(=O)Nc1nc(C)c(S(=O)(=O)Nc2ccc(C(O)(C(F)(F)F)C(F)(F)F)cc2)s1 [SR1001]
Diabetes incidence and insulitis [1]: significantly reduced diabetes incidence and insulitis

O=C(Nc1ccc(C(O)(C(F)(F)F)C(F)(F)F)cc1)c1ccc(C(F)(F)F)cc1 [SR1078]
EC50 (RORγt): 800 nM

CCOP(=O)(OCC)C(=Cc1cc(C(C)(C)C)c(O)c(C(C)(C)C)c1)P(=O)(OCC)OCC [SR12813]
EC50 (hPXR LBD): 440 nM

Clc1ccc(-c2nc3sccn3c2/C=N/OCc2ccc(Cl)c(Cl)c2)cc1 [CITCO]
EC50 (CAR/SRC-1): 49 nM
